Measured values as given in PubChem BioAssay (NCI).
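Following 48 hours of exposure in 96-well plates, responses at five concentrations were used to interpolate endpoints linearly. At the GI50, growth is halved. At the TGI there is no net growth.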

Columns and labels:
Assay in all cases: NCI-60 cell line screen, 48 h
786-0 renal = test system: 786-0 renal
HCT-15 colon = test system: HCT-15 colon
MDA-MB-435 = test system: MDA-MB-435
NCI-H226 lung = test system: NCI-H226 lung
NCI-H23 lung = test system: NCI-H23 lung
NCI/ADR-RES ovarian = test system: NCI/ADR-RES ovarian
RPMI-8226 leukemia = test system: RPMI-8226 leukemia
SK-MEL-28 melanoma = test system: SK-MEL-28 melanoma
SK-OV-3 ovarian = test system: SK-OV-3 ovarian
T-47D breast = test system: T-47D breast

## O=C(O)c1cc(-c2ccc3cc4c(cc3c2)OCO4)nc2ccccc12
786-0 renal
  TGI: > 100 µM
HCT-15 colon
  TGI: > 100 µM
MDA-MB-435
  TGI: > 100 µM
NCI-H226 lung
  TGI: > 100 µM
NCI-H23 lung
  TGI: > 100 µM
NCI/ADR-RES ovarian
  TGI: > 100 µM
RPMI-8226 leukemia
  TGI: > 100 µM
SK-MEL-28 melanoma
  TGI: > 100 µM
SK-OV-3 ovarian
  TGI: > 100 µM
T-47D breast
  TGI: > 100 µM

## CCc1cccc(C(C)C)c1NC(=O)C(=O)C1C(=O)Nc2ccccc2S1=O (stereo not given)
786-0 renal
  TGI: > 100 µM
HCT-15 colon
  TGI: > 100 µM
MDA-MB-435
  TGI: > 100 µM
NCI-H226 lung
  TGI: > 100 µM
NCI-H23 lung
  TGI: > 100 µM
NCI/ADR-RES ovarian
  TGI: > 100 µM
RPMI-8226 leukemia
  TGI: > 100 µM
SK-MEL-28 melanoma
  TGI: > 100 µM
SK-OV-3 ovarian
  TGI: > 100 µM
T-47D breast
  TGI: > 100 µM

## CCc1nc(N)nc(N)c1-c1ccc(Cl)c([N+](=O)[O-])c1
786-0 renal
  TGI: > 100 µM
HCT-15 colon
  TGI: > 100 µM
MDA-MB-435
  TGI: > 100 µM
NCI-H226 lung
  TGI: > 100 µM
NCI-H23 lung
  TGI: > 100 µM
NCI/ADR-RES ovarian
  TGI: > 100 µM
RPMI-8226 leukemia
  TGI: > 83.9 µM
SK-MEL-28 melanoma
  TGI: > 100 µM
SK-OV-3 ovarian
  TGI: > 100 µM
T-47D breast
  TGI: > 100 µM

## CCOC(=O)C1=CCCC[C@H]1S(=O)(=O)Nc1ccc(F)cc1Cl
786-0 renal
  GI50: 32.9 µM
  TGI: > 100 µM
HCT-15 colon
  GI50: 20.3 µM
  TGI: > 100 µM
MDA-MB-435
  GI50: 21.1 µM
  TGI: 69.9 µM
NCI-H226 lung
  GI50: 26.7 µM
  TGI: > 100 µM
NCI-H23 lung
  GI50: 26.6 µM
  TGI: > 100 µM
NCI/ADR-RES ovarian
  GI50: 33.9 µM
  TGI: > 100 µM
RPMI-8226 leukemia
  GI50: 20.5 µM
  TGI: 67.6 µM
SK-MEL-28 melanoma
  GI50: 28 µM
  TGI: > 100 µM
SK-OV-3 ovarian
  GI50: 47.6 µM
  TGI: > 100 µM
T-47D breast
  GI50: 16.6 µM
  TGI: > 100 µM

## O=c1c2c(nc3n1CCS3)[nH]c1cc([N+](=O)[O-])ccc12
786-0 renal
  GI50: > 100 µM
  TGI: > 100 µM
HCT-15 colon
  GI50: > 100 µM
  TGI: > 100 µM
MDA-MB-435
  GI50: > 100 µM
  TGI: > 100 µM
NCI-H226 lung
  GI50: > 100 µM
  TGI: > 100 µM
NCI-H23 lung
  GI50: > 100 µM
  TGI: > 100 µM
NCI/ADR-RES ovarian
  GI50: > 100 µM
  TGI: > 100 µM
RPMI-8226 leukemia
  GI50: > 100 µM
  TGI: > 100 µM
SK-MEL-28 melanoma
  GI50: > 100 µM
  TGI: > 100 µM
SK-OV-3 ovarian
  GI50: > 100 µM
  TGI: > 100 µM
T-47D breast
  GI50: 45 µM
  TGI: > 100 µM

## COc1ccc(Nc2nc3cc(N)cc(N)c3nc2-c2ccccc2)cc1
786-0 renal
  GI50: 16 µM
  TGI: 31.2 µM
HCT-15 colon
  GI50: 15.3 µM
  TGI: 45 µM
MDA-MB-435
  GI50: 16.5 µM
  TGI: 30.1 µM
NCI-H226 lung
  GI50: 23.8 µM
  TGI: 98.4 µM
NCI-H23 lung
  GI50: 12.5 µM
  TGI: 25.3 µM
NCI/ADR-RES ovarian
  GI50: 18.9 µM
  TGI: 44.9 µM
RPMI-8226 leukemia
  GI50: 19.1 µM
  TGI: > 100 µM
SK-MEL-28 melanoma
  GI50: 16.8 µM
  TGI: 30.5 µM
SK-OV-3 ovarian
  GI50: 32.8 µM
  TGI: 97.5 µM
T-47D breast
  GI50: 17.8 µM
  TGI: 53.8 µM

## CNC(=O)c1ccc(N2C(=S)N(c3cnc(C#N)c(C(F)(F)F)c3)C(=O)C23CCC3)cc1F
786-0 renal
  GI50: > 100 µM
  TGI: > 100 µM
HCT-15 colon
  GI50: > 100 µM
  TGI: > 100 µM
MDA-MB-435
  GI50: > 100 µM
  TGI: > 100 µM
NCI-H226 lung
  GI50: > 100 µM
  TGI: > 100 µM
NCI-H23 lung
  GI50: > 100 µM
  TGI: > 100 µM
NCI/ADR-RES ovarian
  GI50: > 100 µM
  TGI: > 100 µM
RPMI-8226 leukemia
  GI50: 59.3 µM
  TGI: > 100 µM
SK-MEL-28 melanoma
  GI50: > 100 µM
  TGI: > 100 µM
SK-OV-3 ovarian
  GI50: > 100 µM
  TGI: > 100 µM
T-47D breast
  GI50: 80.6 µM
  TGI: > 100 µM

## O=C1Nc2c(ccc(Cl)c2Cl)/C1=C/c1cc(Br)c(O)c(Br)c1
786-0 renal
  GI50: 6.62 µM
  TGI: 78.7 µM
HCT-15 colon
  GI50: 4.65 µM
  TGI: 35.3 µM
MDA-MB-435
  GI50: 2.02 µM
  TGI: 5.82 µM
NCI-H226 lung
  GI50: 11.5 µM
  TGI: 60.4 µM
NCI-H23 lung
  GI50: 4.91 µM
  TGI: > 65.7 µM
NCI/ADR-RES ovarian
  GI50: 2.95 µM
  TGI: > 24.1 µM
RPMI-8226 leukemia
  GI50: 2.61 µM
  TGI: 67.7 µM
SK-MEL-28 melanoma
  GI50: 7.07 µM
  TGI: > 100 µM
SK-OV-3 ovarian
  GI50: 4.88 µM
  TGI: 30.4 µM
T-47D breast
  GI50: 2.99 µM
  TGI: 12.3 µM

## COc1ccc2ncn(-c3cc(O[C@H](C)c4ccccc4C(F)(F)F)c(C(N)=O)s3)c2c1
786-0 renal
  GI50: 0.592 µM
  TGI: 5.79 µM
HCT-15 colon
  GI50: 0.134 µM
  TGI: 17.2 µM
MDA-MB-435
  GI50: 0.0466 µM
  TGI: 0.155 µM
NCI-H226 lung
  GI50: 3.07 µM
  TGI: 12.4 µM
NCI-H23 lung
  GI50: 0.113 µM
  TGI: 5.9 µM
NCI/ADR-RES ovarian
  GI50: 0.0586 µM
  TGI: 0.185 µM
RPMI-8226 leukemia
  GI50: 0.627 µM
  TGI: 8.44 µM
SK-MEL-28 melanoma
  GI50: 2.64 µM
  TGI: 8.54 µM
SK-OV-3 ovarian
  GI50: 0.1 µM
  TGI: 5.56 µM
T-47D breast
  GI50: 2.86 µM
  TGI: 7.2 µM

## O=C(O)CSc1n[nH]c(=O)[nH]c1=O
786-0 renal
  TGI: > 100 µM
HCT-15 colon
  TGI: > 100 µM
MDA-MB-435
  TGI: > 100 µM
NCI-H226 lung
  TGI: > 100 µM
NCI-H23 lung
  TGI: > 100 µM
NCI/ADR-RES ovarian
  TGI: > 100 µM
RPMI-8226 leukemia
  TGI: > 100 µM
SK-MEL-28 melanoma
  TGI: > 100 µM
SK-OV-3 ovarian
  TGI: > 100 µM
T-47D breast
  TGI: > 100 µM
